Source: ChEMBL document CHEMBL1201862, “PubChem BioAssay data set” (2004)
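Each compound was tested at five concentrations against cells in 96-well plates for 48 hours. At the GI50, growth is halved.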 Active and inactive are the calls of the source. Rule as the data show it: active = GI50 up to about 1.1 µM and inactive = higher.

Legend:
Experiment in all cases: growth of human tumour cells (NCI), 48 h
786-0 = test system: 786-0
A498 = test system: A498
A549 = test system: A549
ACHN = test system: ACHN
CAKI-1 = test system: CAKI-1
CCRF-CEM = test system: CCRF-CEM
COLO 205 = test system: COLO 205
DLD-1 = test system: DLD-1
DMS-114 = test system: DMS-114
DMS-273 = test system: DMS-273
EKVX = test system: EKVX
HCC 2998 = test system: HCC 2998
HCT-116 = test system: HCT-116
HCT-15 = test system: HCT-15
HL-60 = test system: HL-60
HOP-18 = test system: HOP-18
HOP-62 = test system: HOP-62
HT-29 = test system: HT-29
IGROV-1 = test system: IGROV-1
K562 = test system: K562
KM-20L2 = test system: KM-20L2
KM12 = test system: KM12
LOX IMVI = test system: LOX IMVI
LXFL 529 = test system: LXFL 529
M14 = test system: M14
M19-MEL = test system: M19-MEL
MOLT-4 = test system: MOLT-4
Malme-3M = test system: Malme-3M
NCI-H226 = test system: NCI-H226
NCI-H23 = test system: NCI-H23
NCI-H460 = test system: NCI-H460
NCI-H522 = test system: NCI-H522
OVCAR-3 = test system: OVCAR-3
OVCAR-4 = test system: OVCAR-4
OVCAR-5 = test system: OVCAR-5
OVCAR-8 = test system: OVCAR-8
RPMI-8226 = test system: RPMI-8226
RXF 393 = test system: RXF 393
SF-268 = test system: SF-268
SF-295 = test system: SF-295
SK-MEL-28 = test system: SK-MEL-28
SK-MEL-2 = test system: SK-MEL-2
SK-MEL-5 = test system: SK-MEL-5
SK-OV-3 = test system: SK-OV-3
SN12C = test system: SN12C
SNB-19 = test system: SNB-19
SNB-75 = test system: SNB-75
SNB-78 = test system: SNB-78
SR = test system: SR
SW-620 = test system: SW-620
TK-10 = test system: TK-10
U-251 = test system: U-251
UACC-257 = test system: UACC-257
UACC-62 = test system: UACC-62
UO-31 = test system: UO-31
HOP-92 = test system: HOP-92
SF-539 = test system: SF-539

COc1ccc(OC)c2c3c(ccc12)C(c1ccccc1)OC3=O (stereo unspecified)
GI50 (786-0): 60.7 µM (inactive)
GI50 (A498): 81.7 µM (inactive)
GI50 (A549): 85.5 µM (inactive)
GI50 (ACHN): 55.7 µM (inactive)
GI50 (CAKI-1): 55.1 µM (inactive)
GI50 (CCRF-CEM): 64 µM (inactive)
GI50 (COLO 205): 54 µM (inactive)
GI50 (DLD-1): 63.5 µM (inactive)
GI50 (DMS-114): 51.8 µM (inactive)
GI50 (DMS-273): 31.9 µM (inactive)
GI50 (EKVX): > 100 µM (inactive)
GI50 (HCC 2998): > 100 µM (inactive)
GI50 (HCT-116): 72.9 µM (inactive)
GI50 (HCT-15): 61 µM
GI50 (HL-60): 33.7 µM (inactive)
GI50 (HOP-18): 52.1 µM (inactive)
GI50 (HOP-62): 73.5 µM (inactive)
GI50 (HT-29): 58.3 µM (inactive)
GI50 (IGROV-1): > 100 µM (inactive)
GI50 (K562): 47.2 µM (inactive)
GI50 (KM-20L2): > 100 µM (inactive)
GI50 (KM12): 56.5 µM (inactive)
GI50 (LOX IMVI): 56.5 µM (inactive)
GI50 (LXFL 529): 43.8 µM (inactive)
GI50 (M14): > 100 µM (inactive)
GI50 (M19-MEL): 45.7 µM (inactive)
GI50 (MOLT-4): 32.9 µM (inactive)
GI50 (Malme-3M): 59 µM (inactive)
GI50 (NCI-H226): > 100 µM (inactive)
GI50 (NCI-H23): 17.7 µM (inactive)
GI50 (NCI-H460): 47.2 µM (inactive)
GI50 (NCI-H522): 36.5 µM (inactive)
GI50 (OVCAR-3): 25.8 µM (inactive)
GI50 (OVCAR-4): 70.1 µM (inactive)
GI50 (OVCAR-5): > 100 µM (inactive)
GI50 (OVCAR-8): 39.4 µM (inactive)
GI50 (RPMI-8226): 24.9 µM (inactive)
GI50 (RXF 393): 39.9 µM (inactive)
GI50 (SF-268): > 100 µM (inactive)
GI50 (SF-295): 52.6 µM (inactive)
GI50 (SK-MEL-28): 52.4 µM (inactive)
GI50 (SK-MEL-2): 55 µM (inactive)
GI50 (SK-MEL-5): 47.5 µM (inactive)
GI50 (SK-OV-3): > 100 µM (inactive)
GI50 (SN12C): 94.2 µM (inactive)
GI50 (SNB-19): > 100 µM (inactive)
GI50 (SNB-75): 38.7 µM (inactive)
GI50 (SNB-78): 12.8 µM (inactive)
GI50 (SR): 45 µM (inactive)
GI50 (SW-620): 85.1 µM (inactive)
GI50 (TK-10): 60.4 µM (inactive)
GI50 (U-251): 60.3 µM (inactive)
GI50 (UACC-257): 37.7 µM (inactive)
GI50 (UACC-62): > 100 µM (inactive)
GI50 (UO-31): 36.8 µM (inactive)

CCOC(=O)NC(=O)c1cn(-c2ccc(CCOC(=O)NCCCCCCNC(=O)OCCc3ccc(-n4c(=O)[nH]cc(C(=O)NC(=O)OCC)c4=O)cc3)cc2)c(=O)[nH]c1=O
GI50 (786-0): 48.5 µM (inactive)
GI50 (A498): > 80.4 µM (inactive)
GI50 (A549): > 100 µM (inactive)
GI50 (ACHN): 29.4 µM (inactive)
GI50 (CAKI-1): > 100 µM (inactive)
GI50 (CCRF-CEM): 32.6 µM (inactive)
GI50 (COLO 205): > 100 µM (inactive)
GI50 (DLD-1): > 100 µM (inactive)
GI50 (DMS-114): > 75.2 µM (inactive)
GI50 (DMS-273): > 79.8 µM (inactive)
GI50 (EKVX): 53.2 µM (inactive)
GI50 (HCC 2998): > 100 µM (inactive)
GI50 (HCT-116): > 100 µM (inactive)
GI50 (HCT-15): > 100 µM
GI50 (HL-60): > 100 µM (inactive)
GI50 (HOP-18): > 100 µM (inactive)
GI50 (HOP-62): 37.6 µM (inactive)
GI50 (HOP-92): > 72.4 µM (inactive)
GI50 (HT-29): > 100 µM (inactive)
GI50 (IGROV-1): 75.2 µM (inactive)
GI50 (K562): > 100 µM (inactive)
GI50 (KM-20L2): > 100 µM (inactive)
GI50 (KM12): > 100 µM (inactive)
GI50 (LOX IMVI): 56.6 µM (inactive)
GI50 (LXFL 529): 22.2 µM (inactive)
GI50 (M14): > 100 µM (inactive)
GI50 (M19-MEL): 47 µM (inactive)
GI50 (MOLT-4): 58.1 µM (inactive)
GI50 (Malme-3M): 50 µM (inactive)
GI50 (NCI-H23): 49.4 µM (inactive)
GI50 (NCI-H460): 28.8 µM (inactive)
GI50 (NCI-H522): 22.4 µM (inactive)
GI50 (OVCAR-3): > 100 µM (inactive)
GI50 (OVCAR-4): > 100 µM (inactive)
GI50 (OVCAR-5): > 100 µM (inactive)
GI50 (OVCAR-8): 40.6 µM (inactive)
GI50 (RPMI-8226): > 100 µM (inactive)
GI50 (RXF 393): > 100 µM (inactive)
GI50 (SF-268): > 49 µM (inactive)
GI50 (SF-295): 31.6 µM (inactive)
GI50 (SF-539): 23.7 µM (inactive)
GI50 (SK-MEL-28): > 100 µM (inactive)
GI50 (SK-MEL-2): > 100 µM (inactive)
GI50 (SK-MEL-5): 78.7 µM (inactive)
GI50 (SK-OV-3): 47.6 µM (inactive)
GI50 (SN12C): > 100 µM (inactive)
GI50 (SNB-19): 23.2 µM (inactive)
GI50 (SNB-75): 27.5 µM (inactive)
GI50 (SNB-78): 58.2 µM (inactive)
GI50 (SR): > 62.8 µM (inactive)
GI50 (SW-620): > 100 µM (inactive)
GI50 (TK-10): 58.3 µM (inactive)
GI50 (U-251): 33.2 µM (inactive)
GI50 (UACC-257): > 72.8 µM (inactive)
GI50 (UACC-62): 24.1 µM (inactive)
GI50 (UO-31): > 65.8 µM (inactive)
